One assay concerns SMMC-7721. The assay is described as follows: Cytotoxicity against human SMMC7721 cells after 48 hrs by MTT assay. The format is functional, cell-based. Particulars: SMMC-7721, 48 h.
A further assay concerns MCF7. As to the kind of experiment: Cytotoxicity against human MCF7 cells after 48 hrs by MTT assay. The class given is functional, cell-based. Particulars: MCF7, 48 h.
A further assay has as its system A549. As to the kind of experiment: Cytotoxicity against human A549 cells after 48 hrs by MTT assay. The format is functional, cell-based. The settings on record: A549, 48 h.
Assay [1] relates to Human immunodeficiency virus 1. As to the kind of experiment: Antiviral activity against HIV1 3B infected in human C8166 cells assessed as inhibition of viral-induced cytopathogenicity by syncytium formation assay. The format is functional, organism-based. The settings on record: Human immunodeficiency virus 1, 3B.
In another assay the test system is SW480. As to the kind of experiment: Cytotoxicity against human SW480 cells after 48 hrs by MTT assay. The class given is functional, cell-based. Particulars: SW480, 48 h.

pEC50, pIC50: −log10 of the molar value. A value given as a limit tells only on which side of the number the result lay.

As for `C/C(=C\CC[C@@H](C)[C@H]1CC[C@@]2(C)[C@@H]3CC[C@H]4C(C)(C)C(=O)CC[C@]4(C)C3=C[C@@H](O)[C@]12C)C(=O)O`, the pIC50 in the assay with SMMC-7721, with MCF7, in the assay on A549 and in the assay on SW480 was below 4.40 each time. In addition, the pEC50 in assay [1] is 4.26.

Take `C/C(=C\CC[C@@H](C)C(=O)CC[C@]1(C)C(=O)C=C2[C@H]1CC[C@H]1C(C)(C)C(=O)CC[C@]21C)C(=O)O`: the pIC50 with SMMC-7721, with MCF7, in the assay with A549 and in the assay with SW480 was below 4.40 in each case. The pEC50 in assay [1] was 4.52.

Turning to `CC1=C[C@]2(O)[C@@H](CC[C@H]3C(C)(C)C(=O)CC[C@@]32C)[C@@](C)(CCC(=O)[C@H](C)CC/C=C(\C)C(=O)O)C1=O`, the pIC50 with SMMC-7721, in the assay with MCF7, with A549 and in the assay with SW480 was below 4.40 throughout.

For the compound `Cc1cn([C@H]2C[C@H](N=[N+]=[N-])[C@@H](CO)O2)c(=O)[nH]c1=O` [ZIDOVUDINE], the pEC50 in assay [1] was 7.70.
